The source made the active and inactive calls. No cut-off for these calls is given here.
Tests used:
[1] = test system: HepG2; test: Cytotoxicity against human HepG2 cells assessed as inhibition of cell proliferation measured after 48 hrs by MTT assay; type: functional, cell-based; conditions: HepG2, 48 h
[2] = test system: PANC-1; test: Cytotoxicity against human PANC-1 cells assessed as inhibition of cell proliferation measured after 48 hrs by MTT assay; type: functional, cell-based; conditions: PANC-1, 48 h
[3] = test system: NCI-H1299; test: Cytotoxicity against human NCI-H1299 cells assessed as inhibition of cell proliferation measured after 48 hrs by MTT assay; type: functional, cell-based; conditions: NCI-H1299, 48 h
[4] = test system: PC-3; test: Cytotoxicity against human PC-3 cells assessed as inhibition of cell proliferation measured after 48 hrs by MTT assay; type: functional, cell-based; conditions: PC-3, 48 h
[5] = test system: L02; test: Cytotoxicity against human HL7702 cells assessed as inhibition of cell proliferation measured after 48 hrs by MTT assay; type: cell-based; conditions: L02, 48 h
[6] = test system: HeLa; test: Cytotoxicity against human HeLa cells assessed as inhibition of cell proliferation measured after 48 hrs by MTT assay; type: functional, cell-based
[7] = test system: MCF7; test: Cytotoxicity against human MCF7 cells assessed as inhibition of cell proliferation measured after 48 hrs by MTT assay; type: functional, cell-based; conditions: MCF7, 48 h
[8] = test system: NCI-H1975; test: Cytotoxicity against human NCI-H1975 cells assessed as inhibition of cell proliferation measured after 48 hrs by MTT assay; type: functional, cell-based; conditions: NCI-H1975, 48 h
[9] = Cytotoxicity against human HBE cells assessed as inhibition of cell proliferation measured after 48 hrs by MTT assay; type: cell-based
[10] = Cytotoxicity against human A549/DDP cells assessed as inhibition of cell proliferation measured after 48 hrs by MTT assay; type: functional, cell-based
[11] = test system: NCI-H1975; test: Potency index, ratio of TP IC50 to test compound IC50 for cytotoxicity against human NCI-H1975 cells; type: functional
[12] = test system: MCF7; test: Potency index, ratio of TP IC50 to test compound IC50 for cytotoxicity against human MCF7 cells; type: functional
[13] = test system: HepG2; test: Potency index, ratio of TP IC50 to test compound IC50 for cytotoxicity against human HepG2 cells; type: functional
[14] = test system: PANC-1; test: Potency index, ratio of TP IC50 to test compound IC50 for cytotoxicity against human PANC-1 cells; type: functional
[15] = test system: PC-3; test: Potency index, ratio of TP IC50 to test compound IC50 for cytotoxicity against human PC-3 cells; type: functional
[16] = test system: HeLa; test: Potency index, ratio of TP IC50 to test compound IC50 for cytotoxicity against human HeLa cells; type: functional
[17] = Potency index, ratio of TP IC50 to test compound IC50 for cytotoxicity against human A549/DDP cells; type: functional
[18] = test system: NCI-H1299; test: Potency index, ratio of TP IC50 to test compound IC50 for cytotoxicity against human NCI-H1299 cells; type: functional
[19] = Toxicity in zebrafish AB assessed as decrease in hatching rate at 0.25 to 2 uM measured at 72 hrs postfertilization; parameters: species or system Danio rerio; conditions: in vivo, dose 0.25-2 µM
[20] = Toxicity in zebrafish AB assessed as mortality at 0.05 to 2 uM measured at 72 hrs postfertilization; parameters: species or system Danio rerio; conditions: in vivo, dose 0.05-2 µM
[21] = Toxicity in zebrafish AB assessed as decrease in body length at 0.25 to 2 uM measured at 72 hrs postfertilization; parameters: species or system Danio rerio; conditions: in vivo, dose 0.25-2 µM
[22] = Toxicity in 12-month old zebrafish assessed as mortality at 1.6 uM; parameters: species or system Danio rerio; conditions: in vivo
[23] = test system: HepG2; test: Antitumor activity against human HepG2 cells xenografted in zebra fish AB assessed as tumor growth inhibition at 0.5 to 1 uM measured after 48 hrs by fluorescence microscopic analysis; type: functional, cell-based; conditions: dose 0.5-1 µM
[24] = test system: HepG2; test: Antitumor activity against human HepG2 cells xenografted in zebra fish AB assessed as tumor growth inhibition at 1 uM measured after 48 hrs by fluorescence microscopic analysis; type: functional, cell-based
[25] = Toxicity in zebrafish AB assessed as pericardial edema at 1 uM; parameters: species or system Danio rerio; conditions: in vivo
[26] = Toxicity in zebrafish AB assessed as increase in embryo malformation rate at 0.5 to 2 uM measured at 72 hrs postfertilization; parameters: species or system Danio rerio; conditions: in vivo, dose 0.5-2 µM
[27] = Hepatotoxicity in transgenic zebrafish Tg(1-fabp:EGFP) assessed as liver damage by measuring decrease in fluorescence intensity and area at 0.5 uM measured after 96 hrs; type: toxicity, tissue-based, Danio rerio; conditions: in vivo

SMILES | IC50 [1] | IC50 [2] | IC50 [3] | IC50 [4] | IC50 [5] | IC50 [6] | IC50 [7] | IC50 [8] | IC50 [9] | IC50 [10] | further results
CC(C)[C@]12O[C@H]1[C@@H]1O[C@]13[C@]1(O[C@H]1C[C@H]1C4=C(CC[C@@]13C)C(=O)OC4)[C@@H]2OC(=O)CCCCCC[P+](c1ccccc1)(c1ccccc1)c1ccccc1 | 0.135 µM | 0.239 µM | 0.242 µM | 0.145 µM | 0.319 µM | 0.269 µM | 0.316 µM | 0.145 µM | 0.136 µM | > 10 µM | –
CC(C)[C@]12O[C@H]1[C@@H]1O[C@]13[C@]1(O[C@H]1C[C@H]1C4=C(CC[C@@]13C)C(=O)OC4)[C@@H]2OC(=O)CCCCCBr | 0.147 µM | 0.387 µM | 0.116 µM | 0.079 µM | 0.085 µM | 0.386 µM | 0.363 µM | 0.208 µM | 0.17 µM | > 10 µM | –
CC(C)[C@]12O[C@H]1[C@@H]1O[C@]13[C@]1(O[C@H]1C[C@H]1C4=C(CC[C@@]13C)C(=O)OC4)[C@@H]2OC(=O)CCCCCCCBr | 0.138 µM | 0.137 µM | 0.089 µM | 0.163 µM | 0.088 µM | 0.265 µM | 0.3 µM | 0.036 µM | 0.132 µM | > 10 µM | –
CCCCCCCCCCC(=O)O[C@@H]1[C@@]2(C(C)C)O[C@H]2[C@@H]2O[C@]23[C@]12O[C@H]2C[C@H]1C2=C(CC[C@@]13C)C(=O)OC2 | 0.292 µM | 0.32 µM | 0.333 µM | 1.27 µM | 0.188 µM | 0.473 µM | 0.471 µM | 0.095 µM | 0.153 µM | > 10 µM | –
CCCCC(=O)O[C@@H]1[C@@]2(C(C)C)O[C@H]2[C@@H]2O[C@]23[C@]12O[C@H]2C[C@H]1C2=C(CC[C@@]13C)C(=O)OC2 | 0.489 µM | 0.14 µM | 0.505 µM | 0.985 µM | 0.317 µM | 0.809 µM | 1.69 µM | 0.525 µM | 0.327 µM | > 10 µM | –
CCCCCC(=O)O[C@@H]1[C@@]2(C(C)C)O[C@H]2[C@@H]2O[C@]23[C@]12O[C@H]2C[C@H]1C2=C(CC[C@@]13C)C(=O)OC2 | 0.074 µM | 0.086 µM | 0.216 µM | 0.157 µM | 0.153 µM | 0.34 µM | 0.644 µM | 0.081 µM | 0.101 µM | > 10 µM | –
CCCCCCC(=O)O[C@@H]1[C@@]2(C(C)C)O[C@H]2[C@@H]2O[C@]23[C@]12O[C@H]2C[C@H]1C2=C(CC[C@@]13C)C(=O)OC2 | 0.052 µM | 0.169 µM | 0.134 µM | 0.189 µM | 0.042 µM | 0.242 µM | 0.213 µM | 0.082 µM | 0.119 µM | > 10 µM | –
CCCCCCCC(=O)O[C@@H]1[C@@]2(C(C)C)O[C@H]2[C@@H]2O[C@]23[C@]12O[C@H]2C[C@H]1C2=C(CC[C@@]13C)C(=O)OC2 | 0.111 µM | 0.137 µM | 0.194 µM | 0.17 µM | 0.063 µM | 0.449 µM | 0.554 µM | 0.152 µM | 0.141 µM | > 10 µM | –
CC(C)[C@]12O[C@H]1[C@@H]1O[C@]13[C@]1(O[C@H]1C[C@H]1C4=C(CC[C@@]13C)C(=O)OC4)[C@@H]2OC(=O)CCCCBr | 0.231 µM | 1.22 µM | 0.232 µM | 0.189 µM | 0.084 µM | 0.719 µM | 0.384 µM | 0.163 µM | 0.266 µM | > 10 µM | –
CC(C)[C@]12O[C@H]1[C@@H]1O[C@]13[C@]1(O[C@H]1C[C@H]1C4=C(CC[C@@]13C)C(=O)OC4)[C@@H]2OC(=O)CCCC[P+](c1ccccc1)(c1ccccc1)c1ccccc1.[Br-] | 24.2 µM | 13.4 µM | 2.24 µM | 26.4 µM | 17.4 µM | 22.9 µM | 18.7 µM | 1.39 µM | 6.27 µM | > 10 µM | Ratio IC50 [11]: 100; Ratio IC50 [12]: 100; Ratio IC50 [13]: 100; Ratio IC50 [14]: 100; Ratio IC50 [15]: 100; Ratio IC50 [16]: 100; Ratio IC50 [17]: 100; Ratio IC50 [18]: 100
CC(C)[C@]12O[C@H]1[C@@H]1O[C@]13[C@]1(O[C@H]1C[C@H]1C4=C(CC[C@@]13C)C(=O)OC4)[C@@H]2OC(=O)CCCCCCC[P+](c1ccccc1)(c1ccccc1)c1ccccc1 | 0.06 µM | 0.165 µM | 0.202 µM | 0.163 µM | 0.127 µM | 0.331 µM | 0.312 µM | 0.19 µM | 0.123 µM | > 10 µM | –
CC(C)[C@]12O[C@H]1[C@@H]1O[C@]13[C@]1(O[C@H]1C[C@H]1C4=C(CC[C@@]13C)C(=O)OC4)[C@@H]2O [TRIPTOLIDE] | 0.033 µM | 0.056 µM | 0.049 µM | 0.021 µM | 0.021 µM | 0.043 µM | 0.022 µM | 0.019 µM | 0.03 µM | > 10 µM | Activity [19]: Toxic; Activity [20]: Non-Toxic; Activity [21]: Toxic; mortality at 1.6 µM [22]: 100%; Activity [23]: Active; Activity [24]: Active; Activity [25]: Toxic; Activity [26]: Toxic; Activity [27]: Toxic
CC(C)[C@]12O[C@H]1[C@@H]1O[C@]13[C@]1(O[C@H]1C[C@H]1C4=C(CC[C@@]13C)C(=O)OC4)[C@@H]2OC(=O)CCCCCCCCCC[P+](c1ccccc1)(c1ccccc1)c1ccccc1 | 0.355 µM | 0.186 µM | 0.381 µM | 0.149 µM | 0.415 µM | 0.617 µM | 0.192 µM | 0.265 µM | 0.212 µM | 1.02 µM | –
CC(C)[C@]12O[C@H]1[C@@H]1O[C@]13[C@]1(O[C@H]1C[C@H]1C4=C(CC[C@@]13C)C(=O)OC4)[C@@H]2OC(=O)CCCCCCCCCCBr | 0.625 µM | 0.366 µM | 0.557 µM | 0.814 µM | 0.227 µM | 1.08 µM | 0.426 µM | 0.381 µM | 0.479 µM | > 10 µM | –
CC(C)[C@]12O[C@H]1[C@@H]1O[C@]13[C@]1(O[C@H]1C[C@H]1C4=C(CC[C@@]13C)C(=O)OC4)[C@@H]2OC(=O)CCCCCCBr | 0.065 µM | 0.211 µM | 0.089 µM | 0.042 µM | 0.075 µM | 0.252 µM | 0.092 µM | 0.098 µM | 0.116 µM | > 10 µM | –
COc1cccc2c1C(=O)c1c(O)c3c(c(O)c1C2=O)C[C@@](O)(C(=O)CO)C[C@@H]3O[C@H]1C[C@H](N)[C@H](O)[C@H](C)O1 [DOXORUBICIN] | 1.97 µM | 3.1 µM | 1.3 µM | 0.539 µM | 0.351 µM | 2.09 µM | – | 2.68 µM | 1.27 µM | 10.8 µM | Activity [24]: Active
